ChEMBL document CHEMBL1255490, “In vitro activities of DC-159a, a novel fluoroquinolone, against Mycobacterium species” (Antimicrob Agents Chemother, 2010)
Values after ≈ are worked out from the molar mass of the structure shown.

Columns and labels:
[1] = system: Mycobacterium tuberculosis; test: Antimycobacterial activity against drug-susceptible Mycobacterium tuberculosis after 21 days by agar dilution method; format: functional; conditions: 504 h
Mycobacterium kansasii = test: Antimycobacterial activity against Mycobacterium kansasii after 7 days by agar dilution method; format: functional; conditions: 168 h
[2] = system: Mycolicibacterium fortuitum; test: Antimycobacterial activity against Mycobacterium fortuitum after 3 days by agar dilution method; format: functional; conditions: 72 h
Mycobacterium avium [3] = test: Antimycobacterial activity against Mycobacterium avium serovar 4 after 14 days by agar dilution method; format: functional; conditions: serovar 4, 336 h
Mycobacterium avium [4] = test: Antimycobacterial activity against Mycobacterium avium serovar 8 after 14 days by agar dilution method; format: functional; conditions: serovar 8, 336 h
[5] = system: Mycobacterium intracellulare; test: Antimycobacterial activity against Mycobacterium intracellular serovar 16 after 21 days by agar dilution method; format: functional; conditions: serovar 16, 504 h
Mycobacteroides chelonae = test: Antimycobacterial activity against Mycobacterium chelonae after 3 days by agar dilution method; format: functional; conditions: 72 h
[6] = system: Mycobacteroides abscessus; test: Antimycobacterial activity against Mycobacterium abscessus after 3 days by agar dilution method; format: functional; conditions: 72 h
[7] = Cmax in monkey at 5 mg/kg, po; format: ADME, organism-based, Macaca mulatta; set-up: dose 5 mg/kg, route oral; conditions: rhesus monkey, in vivo
[8] = AUC (0 to 24 hrs) in monkey at 5 mg/kg, po; format: ADME, organism-based, Macaca mulatta; set-up: time < 24 hr, dose 5 mg/kg, route oral; conditions: rhesus monkey, plasma

Structure (SMILES) | MIC50 [1] [µg/mL] | MIC90 [1] [µg/mL] | MIC50 (Mycobacterium kansasii) [µg/mL] | MIC90 (Mycobacterium kansasii) [µg/mL] | MIC50 [2] [µg/mL] | MIC90 [2] [µg/mL] | MIC50 (Mycobacterium avium [3]) [µg/mL] | MIC90 (Mycobacterium avium [3]) [µg/mL] | MIC50 (Mycobacterium avium [4]) [µg/mL] | MIC90 (Mycobacterium avium [4]) [µg/mL] | MIC50 [5] [µg/mL] | MIC90 [5] [µg/mL] | MIC (Mycobacteroides chelonae) [µg/mL] | MIC50 (Mycobacteroides chelonae) [µg/mL] | MIC90 (Mycobacteroides chelonae) [µg/mL] | MIC50 [6] [µg/mL] | MIC90 [6] [µg/mL] | further results
CO[C@H]1/C=C/O[C@@]2(C)Oc3c(C)c(O)c4c(O)c(c(/C=N/N5CCN(C)CC5)c(O)c4c3C2=O)NC(=O)/C(C)=C\C=C\[C@H](C)[C@H](O)[C@@H](C)[C@@H](O)[C@@H](C)[C@H](OC(C)=O)[C@@H]1C [RIFAMPIN] | 0.06 (≈ 0.0729 µM) | 0.125 (≈ 0.152 µM) | 0.25 (≈ 0.304 µM) | 0.25 (≈ 0.304 µM) | 32 (≈ 38.9 µM) | 64 (≈ 77.8 µM) | 32 (≈ 38.9 µM) | 128 (≈ 156 µM) | 32 (≈ 38.9 µM) | 128 (≈ 156 µM) | 2 (≈ 2.43 µM) | 32 (≈ 38.9 µM) | > 128 | > 128 | > 128 | > 128 | > 128 | MIC [6]: > 128 µg/mL
COc1c(N2CC3(CC3)[C@](C)(N)C2)c(F)cc2c(=O)c(C(=O)O)cn([C@@H]3C[C@@H]3F)c12 | 0.06 (≈ 0.143 µM) | 0.06 (≈ 0.143 µM) | 0.06 (≈ 0.143 µM) | 0.125 (≈ 0.298 µM) | 0.125 (≈ 0.298 µM) | 0.25 (≈ 0.596 µM) | 1 (≈ 2.38 µM) | 2 (≈ 4.77 µM) | 1 (≈ 2.38 µM) | 2 (≈ 4.77 µM) | 1 (≈ 2.38 µM) | 4 (≈ 9.54 µM) | 4 (≈ 9.54 µM) | 4 (≈ 9.54 µM) | 8 (≈ 19.1 µM) | 8 (≈ 19.1 µM) | 16 (≈ 38.1 µM) | Cmax [7]: 2200 ng/mL; AUC(0-t) at 24 h [8]: 16900 ng·h/mL
C[C@H]1COc2c(N3CCN(C)CC3)c(F)cc3c(=O)c(C(=O)O)cn1c23.C[C@H]1COc2c(N3CCN(C)CC3)c(F)cc3c(=O)c(C(=O)O)cn1c23.O [LEVOFLOXACIN] | 0.5 | 0.5 | 0.25 | 1 | 0.25 | 0.5 | 8 | 32 | 8 | 32 | 8 | 32 |  | 32 | 64 | 64 | 128 | MIC (Mycobacterium kansasii): 0.25 µg/mL
COc1c(N2CCNC(C)C2)c(F)cc2c(=O)c(C(=O)O)cn(C3CC3)c12 (configuration not stated) [GATIFLOXACIN] | 0.125 (≈ 0.333 µM) | 0.25 (≈ 0.666 µM) | 0.125 (≈ 0.333 µM) | 0.5 (≈ 1.33 µM) | 0.125 (≈ 0.333 µM) | 0.25 (≈ 0.666 µM) | 2 (≈ 5.33 µM) | 8 (≈ 21.3 µM) | 2 (≈ 5.33 µM) | 8 (≈ 21.3 µM) | 4 (≈ 10.7 µM) | 16 (≈ 42.6 µM) |  | 16 (≈ 42.6 µM) | 32 (≈ 85.2 µM) | 32 (≈ 85.2 µM) | 64 (≈ 170 µM) | 
COc1c(N2C[C@@H]3CCCN[C@@H]3C2)c(F)cc2c(=O)c(C(=O)O)cn(C3CC3)c12 [MOXIFLOXACIN] | 0.25 (≈ 0.623 µM) | 0.25 (≈ 0.623 µM) | 0.125 (≈ 0.311 µM) | 0.25 (≈ 0.623 µM) | 0.125 (≈ 0.311 µM) | 0.25 (≈ 0.623 µM) |  |  |  |  | 2 (≈ 4.98 µM) | 8 (≈ 19.9 µM) |  | 32 (≈ 79.7 µM) | 32 (≈ 79.7 µM) | 64 (≈ 159 µM) | 128 (≈ 319 µM) | 
